# Results: publication PMC10373199 (ACS Omega, 2023)
# Like-named read-outs stand apart in the source and are kept apart here. Marks after values point to notes of the source that are not given here.
# Tests used:
# Ishikawa cells = assay: AlkP activity in Ishikawa cells; format: cell-based, human; settings: 72 h, DMSO set to 1
# ovariectomized rats = assay: Uterotrophic assay; format: in vivo, rat; settings: 10 μg/kg BW/day s.c. for 3 days
# SR = assay: NCI five-dose screen, SR; format: cell-based; settings: Homo sapiens
# KM12 = assay: NCI five-dose screen, KM12; format: cell-based; settings: Homo sapiens
# UACC-257 = assay: NCI five-dose screen, UACC-257; format: cell-based; settings: Homo sapiens
# T-47D = assay: NCI five-dose screen, T-47D; format: cell-based; settings: Homo sapiens, T47D
# RPMI-8226 = assay: NCI five-dose screen, RPMI-8226; format: cell-based; settings: Homo sapiens
# NCI-H322M = assay: NCI five-dose screen, NCI-H322M; format: cell-based; settings: Homo sapiens
# BT-549 = assay: NCI five-dose screen, BT-549; format: cell-based; settings: Homo sapiens
# CAKI-1 = assay: NCI five-dose screen, CAKI-1; format: cell-based; settings: Homo sapiens
# K-562 = assay: NCI five-dose screen, K-562; format: cell-based; settings: Homo sapiens, K562
# SF-295 = assay: NCI five-dose screen, SF-295; format: cell-based; settings: Homo sapiens
# SNB-75 = assay: NCI five-dose screen, SNB-75; format: cell-based; settings: Homo sapiens
# MDA-MB-468 = assay: NCI five-dose screen, MDA-MB-468; format: cell-based; settings: Homo sapiens
# SF-268 = assay: NCI five-dose screen, SF-268; format: cell-based; settings: Homo sapiens
# MCF7 = assay: NCI five-dose screen, MCF7; format: cell-based; settings: Homo sapiens
# SW-620 = assay: NCI five-dose screen, SW-620; format: cell-based; settings: Homo sapiens
# OVCAR-4 = assay: NCI five-dose screen, OVCAR-4; format: cell-based; settings: Homo sapiens
# COLO 205 = assay: NCI five-dose screen, COLO 205; format: cell-based; settings: Homo sapiens
# SK-OV-3 = assay: NCI five-dose screen, SK-OV-3; format: cell-based; settings: Homo sapiens
# HCT-116 = assay: NCI five-dose screen, HCT-116; format: cell-based; settings: Homo sapiens
# M14 = assay: NCI five-dose screen, M14; format: cell-based; settings: Homo sapiens
# SK-MEL-28 = assay: NCI five-dose screen, SK-MEL-28; format: cell-based; settings: Homo sapiens
# DU-145 = assay: NCI five-dose screen, DU-145; format: cell-based; settings: Homo sapiens
# MALME-3M = assay: NCI five-dose screen, MALME-3M; format: cell-based; settings: Homo sapiens
# NCI-H522 = assay: NCI five-dose screen, NCI-H522; format: cell-based; settings: Homo sapiens
# MDA-MB-435 = assay: NCI five-dose screen, MDA-MB-435; format: cell-based; settings: Homo sapiens
# MDA-MB-231/ATCC = assay: NCI five-dose screen, MDA-MB-231/ATCC; format: cell-based; settings: Homo sapiens
# SN12C = assay: NCI five-dose screen, SN12C; format: cell-based; settings: Homo sapiens
# ACHN = assay: NCI five-dose screen, ACHN; format: cell-based; settings: Homo sapiens
# U251 = assay: NCI five-dose screen, U251; format: cell-based; settings: Homo sapiens, U-251
# OVCAR-3 = assay: NCI five-dose screen, OVCAR-3; format: cell-based; settings: Homo sapiens
# UACC-62 = assay: NCI five-dose screen, UACC-62; format: cell-based; settings: Homo sapiens
# HCT-15 = assay: NCI five-dose screen, HCT-15; format: cell-based; settings: Homo sapiens
# RXF 393 = assay: NCI five-dose screen, RXF 393; format: cell-based; settings: Homo sapiens
# NCI-H226 = assay: NCI five-dose screen, NCI-H226; format: cell-based; settings: Homo sapiens
# MCF-7 = assay: NCI one-dose screen, MCF-7; format: cell-based; settings: Homo sapiens, MCF7, read-out: growth inhibition on MCF-7 (%), 10 μM
# HL-60 (TB) = assay: NCI five-dose screen, HL-60; format: cell-based; settings: Homo sapiens
# IGROV1 = assay: NCI five-dose screen, IGROV1; format: cell-based; settings: Homo sapiens, IGROV-1
# HOP-62 = assay: NCI five-dose screen, HOP-62; format: cell-based; settings: Homo sapiens
# HT29 = assay: NCI five-dose screen, HT29; format: cell-based; settings: Homo sapiens, HT-29
# OVCAR-8 = assay: NCI five-dose screen, OVCAR-8; format: cell-based; settings: Homo sapiens
# SK-MEL-5 = assay: NCI five-dose screen, SK-MEL-5; format: cell-based; settings: Homo sapiens
# CCRF-CEM = assay: NCI five-dose screen, CCRF-CEM; format: cell-based; settings: Homo sapiens
# MOLT-4 = assay: NCI five-dose screen, MOLT-4; format: cell-based; settings: Homo sapiens
# 60 NCI tumor cell lines = assay: NCI one-dose screen, mean over 60 tumor cell lines; format: cell-based; settings: Homo sapiens, read-out: mean growth inhibition (%)
# SK-MEL-2 = assay: NCI five-dose screen, SK-MEL-2; format: cell-based; settings: Homo sapiens
# EKVX = assay: NCI five-dose screen, EKVX; format: cell-based; settings: Homo sapiens
# NCI-H23 = assay: NCI five-dose screen, NCI-H23; format: cell-based; settings: Homo sapiens
# A549/ATCC = assay: NCI five-dose screen, A549/ATCC; format: cell-based; settings: Homo sapiens
# SF-539 = assay: NCI five-dose screen, SF-539; format: cell-based; settings: Homo sapiens
# NCI-H460 = assay: NCI five-dose screen, NCI-H460; format: cell-based; settings: Homo sapiens
# 60 different cell lines = assay: NCI five-dose screen, mean/median over 60 cell lines; format: cell-based; settings: Homo sapiens
# HOP-92 = assay: NCI five-dose screen, HOP-92; format: cell-based; settings: Homo sapiens
# OVCAR-5 = assay: NCI five-dose screen, OVCAR-5; format: cell-based; settings: Homo sapiens
# HS 578T = assay: NCI five-dose screen, HS 578T; format: cell-based; settings: Homo sapiens
# PC-3 = assay: NCI five-dose screen, PC-3; format: cell-based; settings: Homo sapiens
# 786–0 = assay: NCI five-dose screen, 786–0; format: cell-based; settings: Homo sapiens
# A498 = assay: NCI five-dose screen, A498; format: cell-based; settings: Homo sapiens
# NCI/ADR-RES = assay: NCI five-dose screen, NCI/ADR-RES; format: cell-based; settings: Homo sapiens
# TK-10 = assay: NCI five-dose screen, TK-10; format: cell-based; settings: Homo sapiens
# UO-31 = assay: NCI five-dose screen, UO-31; format: cell-based; settings: Homo sapiens
# HCC-2998 = assay: NCI five-dose screen, HCC-2998; format: cell-based; settings: Homo sapiens
# LOX IMVI = assay: NCI five-dose screen, LOX IMVI; format: cell-based; settings: Homo sapiens
# SNB-19 = assay: NCI five-dose screen, SNB-19; format: cell-based; settings: Homo sapiens
# in vitro = settings: human
# EBOV = format: cell-based, Ebola virus; parameters: unit not given beside the values
# influenza A virus H1N1 = assay: Influenza A virus H1N1 screening, visual CPE inhibition; format: cell-based, influenza A virus H1N1 (California/07/2009)
smiles,measurement,setting,value
"CC/C(=C(\c1ccc(O)cc1)c1ccc(OCCN(C)C)cc1)c1ccccc1 [Compound 4-OH-TAM, 4-hydroxytamoxifen]",AlkP activity,Ishikawa cells; 1 μM,1.73 ± 0.46
same,AlkP activity,Ishikawa cells; 10 μM,0.60 ± 0.20
"C[C@]12CC[C@@H]3c4ccc(O)cc4CC[C@H]3[C@@H]1CC[C@@H]2O [Compound E2, 17β-estradiol]",AlkP activity,Ishikawa cells; 10 nM,6.86 ± 0.69 ^a
same,"relative UWW, mean ± SD",ovariectomized rats,3.85 ± 0.71 g/kg BW
"CC/C(=C(\c1ccccc1)c1ccc(OCCN(C)C)cc1)c1ccccc1 [TAM, Tamoxifen]",GI50,SR,1260 nM
same,GI50,KM12,3.16 µM
same,GI50,UACC-257,3.16 µM
same,GI50,T-47D,2510 nM
same,GI50,RPMI-8226,2510 nM
same,GI50,NCI-H322M,7.94 µM
same,AlkP activity,Ishikawa cells; 1 μM,1.60 ± 0.55
same,AlkP activity,Ishikawa cells; 10 μM,1.02 ± 0.37
same,GI50,BT-549,6.31 µM
same,GI50,CAKI-1,3.98 µM
same,GI50,K-562,1990 nM
same,GI50,SF-295,1960 nM
same,GI50,SNB-75,5.01 µM
same,GI50,MDA-MB-468,1960 nM
same,GI50,SF-268,6.31 µM
same,GI50,MCF7,1580 nM
same,GI50,SW-620,3.16 µM
same,GI50,OVCAR-4,6.31 µM
same,GI50,COLO 205,2150 nM
same,GI50,SK-OV-3,10 µM
same,GI50,HCT-116,3.98 µM
same,GI50,M14,2510 nM
same,GI50,SK-MEL-28,3.98 µM
same,GI50,DU-145,6.31 µM
same,GI50,MALME-3M,3.16 µM
same,GI50,NCI-H522,6.31 µM
same,GI50,MDA-MB-435,3.16 µM
same,GI50,MDA-MB-231/ATCC,6.31 µM
same,GI50,SN12C,3.98 µM
same,GI50,ACHN,6.31 µM
same,GI50,U251,3.16 µM
same,GI50,OVCAR-3,3.98 µM
same,GI50,UACC-62,6.31 µM
same,GI50,HCT-15,3.16 µM
same,GI50,RXF 393,2510 nM
same,GI50,NCI-H226,10 µM
same,inhibition at 10 µM,MCF-7,≥ 100%
same,GI50,HL-60 (TB),2510 nM
same,GI50,IGROV1,5.01 µM
same,GI50,HOP-62,10 µM
same,GI50,HT29,2510 nM
same,GI50,OVCAR-8,7.94 µM
same,GI50,SK-MEL-5,2510 nM
same,GI50,CCRF-CEM,3.16 µM
same,GI50,MOLT-4,2510 nM
same,inhibition at 10 µM,60 NCI tumor cell lines,≥ 100%
same,GI50,SK-MEL-2,5.01 µM
same,GI50,EKVX,6.31 µM
same,GI50,NCI-H23,5.01 µM
same,GI50,A549/ATCC,3.98 µM
same,GI50,SF-539,5.01 µM
same,GI50,NCI-H460,3.16 µM
same,GI50,"60 different cell lines; read-out: GI50, mean",4.41 µM
same,GI50,"60 different cell lines; read-out: GI50, median",3.98 µM
same,GI50,HOP-92,2520 nM
same,GI50,OVCAR-5,6.31 µM
same,GI50,HS 578T,3.98 µM
same,GI50,PC-3,3.16 µM
same,GI50,786–0,3.98 µM
same,GI50,A498,6.31 µM
same,GI50,NCI/ADR-RES,5.01 µM
same,GI50,TK-10,3.98 µM
same,GI50,UO-31,6.31 µM
same,GI50,HCC-2998,3.16 µM
same,GI50,LOX IMVI,2510 nM
same,GI50,SNB-19,6.31 µM
NC(=O)c1nc(F)c[nH]c1=O [favipiravir],CC50,in vitro,> 1000 µg/mL
same,SI90,EBOV,>14
NC(=O)c1ncn([C@@H]2O[C@H](CO)[C@@H](O)[C@H]2O)n1 [ribavirin],EC50,"influenza A virus H1N1; Influenza A virus, H1N1, MDCK, read-out: EC50, visual CPE",1 µg/mL
same,SI50 (CC50/EC50),influenza A virus H1N1; visual CPE,>320 µg/mL
